Experimental data published in patent publication US20230365590A1, “BIPHENYL COMPOUND AS IMMUNOMODULATOR, PREPARATION METHOD THEREFOR AND APPLICATION THEREOF” (SHENZHEN CHIPSCREEN BIOSCIENCES CO., LTD., priority 2020, published 2023).

System: PD-1/PD-L1 mediated inhibitory signal to T cell activation (CHO-PD-L1-CD3L cells and Jurkat-PD-1-NFAT cells)
Experiment: Blocking of PD-1/PD-L1 mediated inhibitory signal to T cell activation at cell level (NFAT luciferase reporter, co-culture)
Type: cell-based
Conditions: Homo sapiens, CHO-PD-L1-CD3L / Jurkat-PD-1-NFAT co-culture, 6 h
Procedure: In order to test the effect of interaction between PD-1 and PD-L1 on T cell activation signal in immune response, CHO-PD-L1-CD3L cells stably expressing human PD-L1 molecule and anti-CD3 single-chain antibody (ScFv) and Jurkat-PD-1-NFAT cells stably expressing human PD-1 molecule and NFAT reporter gene were constructed. When two kinds of cells are incubated together, anti-CD3 ScFv on the CHO cell surface and membrane CD3 molecule of Jurkat cell combine to transmit an activation signal into Jurkat cell. However, due to the binding of PD-L1 on the CHO cell surface and PD-1 molecule on the Jurkat cell surface at the same time, a signal for inhibiting activation is transmitted inward, so that luciferase reporter gene cannot be expressed. When an immunocheckpoint antibody or small-molecule inhibitor is added, the binding of PD-1 and PD-L1 is blocked, the NFAT pathway activated by CD3 ScFv antibody and CD3 cross-linking mediated T cell activation signal is no longer affected by the inhibitory signal, and the downstream luciferase reporter gene starts to be expressed. Chemiluminescence signals proportional to reporter gene activation can be detected by adding a catalytic substrate.
CHO-PD-L1-CD3L cells expressing human PD-L1 molecule and anti-CD3 single-chain antibody (ScFv) and Jurkat-PD-1-NFAT cells stably expressing human PD-1 molecule and NFAT reporter gene were all independently constructed and presented by Dr. Chen Bo (KeyMed Biosciences (Chengdu) Co., Ltd. Puromycin (Cat # 540411) and Hygromycin B (Cat # V900372) for stable culture of transfected cells were purchased from Sigma, PMA (Cat # P1585) was purchased from Sigma, and the anti human PD-L1 antibody (Cat # GMP-A066) was purchased from Novoprotein Company. The Luciferase substrate solution (Cat # E6485) and the luciferase-specific cell lysate 5×(Cat # E1531) were purchased from Promega company. The fluorescence detector Tecan (Spark 10M) was purchased from Tecan Company in Switzerland.
Main Process of Experiment • (1) On the day before the experiment, 100 μL of CHO-PD-L1-CD3L cells (about 4×10^4 cells/well) were inoculated at 37° C. overnight in a 96-well cell culture plate, and the culture medium was DMEM/F12 containing 10% FBS, 8 μg/mL Puromycin and 200 μg/mL Hygromycin B. • (2) The test compound was diluted with 0.1% PBST to obtain solutions with different concentration gradients, and then added into 96-well plates and incubated for 30 min in advance. The RPMI 1640 complete medium containing 10% FBS, 8 μg/mL Puromycin and 200 μg/mL Hygromycin B was used to adjust the Jurkat-PD-1-NFAT cell count to 2×10^5 cells/mL, and 100 ng/mL PMA (10 mg/mL storage solution prepared with DMSO) was added to amplify the T cell activation signal. 100 μL of the Jurkat-PD-1-NFAT cells were added into each well of the 96-well plates for co-culture. • (3) During the test reaction, control groups were set, including the solvent control without adding the test compound and the positive control with the addition of the […] in the experimental system. All tests were conducted by use of multiple holes. • (4) Incubation was continued at 37° C. for 6 h, 40 μL of 5×cell lysate was added directly, the solution was mixed well and placed at room temperature for 10 min to completely lyse cells. 50 μL of lysed cell solution was transferred to a fluorescence detection plate, 30 μL of luciferase substrate solution was then added, and the chemiluminescence detection program was immediately selected on the fluorescence detector for determination. • (5) Calculation formula of the inhibition rate of the test compound against T cell activation signal at the cell level: The inhibition rate against T cell activation signal (%)=(original chemiluminescence value of the test hole−solvent control)/(the highest original chemiluminescence value determined in the compound test hole−solvent control)×100%. […]

Row | SMILES | EC50 [nM]
1 | COCC12CCC(CCCN3CCc4c(nc(C(=O)Nc5cccc(-c6cccc(NC(=O)c7nc8c(n7C)CCN(CCC79CCC(C(=O)O)(CC7)C9)C8)c6C)c5Cl)n4C)C3)(CC1)C2 [Compound I-1, 4-(2-(2-((2′-chloro-3′-(5-(3-(4-(methoxymethyl)bicyclo[2. 2.1]heptan-1-yl)propyl)-1-methyl-4,5,6,7-tetrahydro-1H-imidazo[4,5-c]pyridine-2-carboxamido) -2-methyl-[1,1′-biphenyl]-3-yl)carbamoyl)-1-methyl-1,4,6,7-tetrahydro-5H-imidazo[4,5-c]pyridin-5-yl)ethyl)bicyclo[2.2.1]heptane-1-carboxylic acid] | 33.9
2 | COCC12CCC(CCCN3CCc4c(nc(C(=O)Nc5cccc(-c6cccc(NC(=O)c7nc8c(n7C)CCN(CCC79CCC(C(=O)O)(CC7)C9)C8)c6Cl)c5C)n4C)C3)(CC1)C2 [Compound I-2, 4-(2-(2-((2-chloro-3′-(5-(3-(4-(methoxymethyl)bicyclo[2.2.1]heptan-1-yl)propyl)-1-methyl-4,5,6,7-tetrahydro-1H-imidazo[4,5-c]pyridine-2-carboxamido)-2′-methyl-[1,1′-biphenyl]-3-yl)carbamoyl)-1-methyl-1,4,6,7-tetrahydro-5H-imidazo[4,5-c]pyridin-5-yl)ethyl)bicyclo[2.2.1]heptane-1-carboxylic acid] | 18.1
3 | CCOCC12CCC(CCN3CCc4c(nc(C(=O)Nc5cccc(-c6cccc(NC(=O)c7nc8c(n7C)CCN(CCC79CCC(C(=O)O)(CC7)C9)C8)c6C)c5Cl)n4C)C3)(CC1)C2 [Compound I-3, 4-(2-(2-((2′-chloro-3′-(5-(2-(4-(ethoxymethyl)bicyclo[2.2.1]heptan-1-yl)ethyl)-1-methyl-4,5 ,6,7-tetrahydro-1H-imidazo[4,5-c]pyridine-2-carboxamido)-2-methyl-[1,1′-biphenyl]-3-yl)carbamoyl)-1-methyl-1,4,6,7-tetrahydro-5H-imidazo[4,5-c]pyridin-5-yl)ethyl)bicyclo[2.2.1]heptane-1-carboxylic acid] | 17
4 | COCC12CCC(CCN3CCc4c(nc(C(=O)Nc5cccc(-c6cccc(NC(=O)c7nc8c(n7C)CCN(CCC79CCC(C(=O)O)(CC7)C9)C8)c6C)c5Cl)n4C)C3)(CC1)C2 [Compound I-4, 4-(2-(2-((2′-chloro-3′-(5-(2-(4-(methoxymethyl)bicyclo[2. 2.1]heptan-1-yl)ethyl)-1-methyl-4,5,6,7-tetrahydro-1H-imidazo[4,5-c]pyridine-2-carboxamido)-2-methyl-[1 ,1′-biphenyl]-3-yl)carbamoyl)-1-methyl-1,4,6,7-tetrahydro-5H-imidazo[4,5-c]pyridin-5-yl)ethyl)bicyclo[2.2.1]heptane-1-carboxylic acid] | 28.3
5 | COCC12CCC(CCN3CCc4c(nc(C(=O)Nc5cccc(-c6cccc(NC(=O)c7nc8c(n7C)CCN(CCC79CCC(C(=O)O)(CC7)C9)C8)c6Cl)c5C)n4C)C3)(CC1)C2 [Compound I-5, 4-(2-(2-((2-chloro-3′-(5-(2-(4-(methoxymethyl)bicyclo[2.2.1]heptan-1-yl)ethyl)-1-methyl-4,5,6,7-tetrahydro-1H-imidazo[4,5-c]pyridine-2-carboxamido)-2′-methyl-[1,1′-biphenyl]-3-yl)carbamoyl)-1-methyl-1,4,6,7-tetrahydro-5H-imidazo [4,5-c]pyridin-5-yl)ethyl)bicyclo[2.2.1]heptane-1-carboxylic acid] | 26.7
6 | COCC12CCC(CCN3CCc4c(nc(C(=O)Nc5cccc(-c6cccc(NC(=O)c7nc8c(n7C)CCN(CCC79CCC(C(=O)O)(CC7)C9)C8)c6Cl)c5Cl)n4C)C3)(CC1)C2 [Compound I-6, 4-(2-(2-((2,2′-dichloro-3′-(5-(2-(4-(methoxymethyl)bicyclo[2.2.1]heptan-1-yl)ethyl)-1-methyl-4,5,6,7-tetrahydro-1H-imidazo[4,5-c]pyridine-2-carboxamido)-[1, 1′-biphenyl]-3-yl)carbamoyl)-1-methyl-1,4,6,7-tetrahydro-5H-imidazo[4,5-c]pyridin-5-yl)ethyl)bicyclo[2.2.1]heptane-1-carboxylic acid] | 15.8
7 | Cn1c(C(=O)Nc2cccc(-c3cccc(NC(=O)c4nc5c(n4C)CCN(CCC46CCC(C(=O)O)(CC4)C6)C5)c3Cl)c2Cl)nc2c1CCN(CCC13CCC(COC(F)F)(CC1)C3)C2 [Compound I-7, 4-(2-(2-((2,2′-dichloro-3′-(5-(2-(4-((difluoromethoxy)methyl)bicyclo[2.2.1]heptan-1-yl)ethyl)-1-methyl-4,5,6,7-tetrahydro-1H-imidazo[4,5-c]pyridine-2-carboxamido)-[1,1′-biphenyl]-3-yl)carbamoyl)-1-methyl-1,4,6,7-tetrahydro-5H-imidazo[4,5-c]pyridin-5-yl)ethyl)bicyclo[2.2.1]heptane-1-carboxylic acid] | 39.2
8 | COCC12CCC(CN3CCc4c(nc(C(=O)Nc5cccc(-c6cccc(NC(=O)c7nc8c(n7C)CCN(CCC79CCC(C(=O)O)(CC7)C9)C8)c6Cl)c5Cl)n4C)C3)(CC1)C2 [Compound I-8, 4-(2-(2-((2,2′-dichloro-3′-(5-((4-(methoxymethyl)bicyclo[2.2.1]heptan-1-yl)methyl)-1-methyl-4,5,6,7-tetrahydro-1H-imidazo[4,5-c]pyridine-2-carboxamido)-[1, 1′-biphenyl]-3-yl)carbamoyl)-1-methyl-1,4,6,7-tetrahydro-5H-imidazo[4,5-c]pyridin-5-yl)ethyl)bicyclo[2.2.1]heptane-1-carboxylic acid] | 30.3
9 | COCC12CCC(CCN3CCc4c(nc(C(=O)Nc5cccc(-c6cccc(NC(=O)c7nc8c(n7C)CCN(CCC79CCC(C(=O)O)(CC7)C9)C8)c6Cl)c5F)n4C)C3)(CC1)C2 [Compound I-9, 4-(2-(2-((2-chloro-2′-fluoro-3′-(5-(2-(4-(methoxymethyl)bicyclo[2.2.1]heptan-1-yl)ethyl)-1-methyl-4,5,6,7-tetrahydro-1H-imidazo [4,5-c]pyridine-2-carboxamido)-[1,1′-biphenyl]-3-yl)carbamoyl)-1-methyl-1,4,6,7-tetrahydro-5H-imidazo[4,5-c]pyridin-5-yl)ethyl)bicyclo[2.2.1]heptane-1-carboxylic acid] | 6.79
10 | Cn1c(C(=O)Nc2cccc(-c3cccc(NC(=O)c4nc5c(n4C)CCN(CCC46CCC(C(=O)O)(CC4)C6)C5)c3Cl)c2F)nc2c1CCN(CCC13CCC(COC(F)F)(CC1)C3)C2 [Compound I-10, 4-(2-(2-((2-chloro-3′-(5-(2-(4-((difluoromethoxy)methyl)bicyclo[2.2.1]heptan-1-yl)ethyl)-1-methyl-4,5,6,7-tetrahydro-1H-imidazo[4,5-c]pyridine-2-carboxamido)-2′-fluoro-[1,1′-biphenyl]-3-yl)carbamoyl)-1-methyl-1,4,6,7-tetrahydro-5H-imidazo[4,5-c]pyridin-5-yl)ethyl)bicyclo[2.2.1]heptane-1-carboxylic acid] | 35.5
11 | COCC12CCC(CCN3CCc4c(nc(C(=O)Nc5cccc(-c6cccc(NC(=O)c7nc8c(n7C)CCN(CCC79CCC(C(=O)O)(CC7)C9)C8)c6Cl)c5C#N)n4C)C3)(CC1)C2 [Compound I-11, 4-(2-(2-((2-chloro-2′-cyano-3′-(5-(2-(4-(methoxymethyl)bicyclo[2.2.1]heptan-1-yl)ethyl)-1-methyl-4,5,6,7-tetrahydro-1H-imidazo[4,5-c]pyridine-2-carboxamido)-[1,1′-biphenyl]-3-yl)carbamoyl)-1-methyl-1,4,6,7-tetrahydro-5H-imidazo[4,5-c]pyridin-5-yl)ethyl)bicyclo[2.2.1]heptane-1-carboxylic acid] | 26.3
